Data from ChEMBL document CHEMBL6078652, “Discovery of Sporachelins by Genome Mining of a Micromonospora Strain” (J Nat Prod, 2024).
Activity calls are given as the source filed them. The calls are words filed in the database; no cut-off is given here.

Assays:
[1] = test system: LX-2; test: Antifibrotic activity against TGFbeta-1 induced human LX-2 cells assessed as inhibition of COL1A1 mRNA expression at 1 uM incubated for 24 hrs by qRT-PCR analysis relative to control; type: functional; parameters: scale not given: the % may be the effect or the level left
[2] = test system: LX-2; test: Antifibrotic activity against TGFbeta-1 induced human LX-2 cells assessed as inhibition of COL1A1 mRNA expression at 5 uM incubated for 24 hrs by qRT-PCR analysis relative to control; type: functional; parameters: scale not given: the % may be the effect or the level left
[3] = test system: LX-2; test: Antifibrotic activity against TGFbeta-1 induced human LX-2 cells assessed as inhibition of TGFB1 mRNA expression at 1 uM incubated for 24 hrs by qRT-PCR analysis relative to control; type: functional; parameters: scale not given: the % may be the effect or the level left
[4] = test system: LX-2; test: Antifibrotic activity against TGFbeta-1 induced human LX-2 cells assessed as inhibition of TGFB1 mRNA expression at 5 uM incubated for 24 hrs by qRT-PCR analysis relative to control; type: functional; parameters: scale not given: the % may be the effect or the level left
[5] = test system: LX-2; test: Antifibrotic activity against TGFbeta-1 induced human LX-2 cells assessed as inhibition of ACTA2 mRNA expression at 1 uM incubated for 24 hrs by qRT-PCR analysis relative to control; type: functional; parameters: scale not given: the % may be the effect or the level left
[6] = test system: LX-2; test: Antifibrotic activity against TGFbeta-1 induced human LX-2 cells assessed as inhibition of ACTA2 mRNA expression at 5 uM incubated for 24 hrs by qRT-PCR analysis relative to control; type: functional; parameters: scale not given: the % may be the effect or the level left
[7] = test system: LX-2; test: Cytotoxicity against human LX-2 cells assessed as reduction in cell viability at 200 uM incubated for 24 hrs by CCK-8 assay; type: toxicity, cell-based; details: lx-2, 24 h
[8] = test system: NIH3T3; test: Antifibrotic activity against TGFbeta-1 induced mouse NIH3T3 cells assessed as decrease in COL1A1 mRNA expression at 1 uM incubated for 24 hrs by qRT-PCR analysis relative to control; type: functional; parameters: scale not given: the % may be the effect or the level left
[9] = test system: NIH3T3; test: Antifibrotic activity against TGFbeta-1 induced mouse NIH3T3 cells assessed as decrease in COL1A1 mRNA expression at 5 uM incubated for 24 hrs by qRT-PCR analysis relative to control; type: functional; parameters: scale not given: the % may be the effect or the level left
[10] = test system: NIH3T3; test: Antifibrotic activity against TGFbeta-1 induced mouse NIH3T3 cells assessed as decrease in Acta2 mRNA expression at 1 uM incubated for 24 hrs by qRT-PCR analysis relative to control; type: functional; parameters: scale not given: the % may be the effect or the level left
[11] = test system: NIH3T3; test: Antifibrotic activity against TGFbeta-1 induced mouse NIH3T3 cells assessed as decrease in Acta2 mRNA expression at 5 uM incubated for 24 hrs by qRT-PCR analysis relative to control; type: functional; parameters: scale not given: the % may be the effect or the level left
[12] = target: T1, Polyunsaturated fatty acid 5-lipoxygenase (Homo sapiens) (UniProt P09917); test: Inhibition of human 5-LO at 2 uM incubated for 15 mins in presence of ATP by measuring fluorescence intensity relative to control
T1 sequence (whole entry): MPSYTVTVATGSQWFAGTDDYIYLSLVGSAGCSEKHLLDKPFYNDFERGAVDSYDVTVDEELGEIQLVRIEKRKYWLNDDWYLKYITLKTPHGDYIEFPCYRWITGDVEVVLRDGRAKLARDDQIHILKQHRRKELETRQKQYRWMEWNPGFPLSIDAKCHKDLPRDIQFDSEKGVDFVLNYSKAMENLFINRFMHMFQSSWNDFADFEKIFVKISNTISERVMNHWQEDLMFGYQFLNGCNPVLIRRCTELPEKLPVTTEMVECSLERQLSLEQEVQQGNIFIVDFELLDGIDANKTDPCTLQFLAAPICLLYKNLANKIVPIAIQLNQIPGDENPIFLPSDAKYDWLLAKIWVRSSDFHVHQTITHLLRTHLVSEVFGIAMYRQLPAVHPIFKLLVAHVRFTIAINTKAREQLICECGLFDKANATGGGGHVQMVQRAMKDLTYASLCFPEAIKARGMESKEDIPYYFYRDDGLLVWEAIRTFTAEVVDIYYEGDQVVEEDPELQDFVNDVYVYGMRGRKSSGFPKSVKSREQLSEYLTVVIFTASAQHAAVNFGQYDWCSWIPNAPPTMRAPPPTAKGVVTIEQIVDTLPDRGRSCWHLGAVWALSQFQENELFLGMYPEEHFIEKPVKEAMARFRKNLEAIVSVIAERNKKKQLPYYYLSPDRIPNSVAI

[13] = test system: LX-2; test: Antifibrotic activity against TGFbeta-1 induced human LX-2 cells assessed as inhibition of COL1A1 mRNA expression incubated for 24 hrs by qRT-PCR analysis; type: functional, cell-based; details: dose 1-5 µM
[14] = test system: LX-2; test: Antifibrotic activity against TGFbeta-1 induced human LX-2 cells assessed as inhibition of TGFB1 mRNA expression incubated for 24 hrs by qRT-PCR analysis; type: functional, cell-based; details: dose 1-5 µM
[15] = test system: LX-2; test: Antifibrotic activity against TGFbeta-1 induced human LX-2 cells assessed as inhibition of ACTA2 mRNA expression incubated for 24 hrs by qRT-PCR analysis; type: functional, cell-based; details: dose 1-5 µM
[16] = test system: Escherichia coli; test: Antibacterial activity against Escherichia coli ATCC 25922 assessed as bacterial growth inhibition incubated for 16 hrs in presence of Muller-Hinton medium by broth microdilution method; type: functional, organism-based
[17] = test system: Escherichia coli; test: Antibacterial activity against Escherichia coli ATCC 35218 assessed as bacterial growth inhibition incubated for 16 hrs in presence of Muller-Hinton medium by broth microdilution method; type: functional, organism-based
[18] = test system: Pseudomonas aeruginosa; test: Antibacterial activity against Pseudomonas aeruginosa ATCC 27853 assessed as bacterial growth inhibition incubated for 16 hrs in presence of Muller-Hinton medium by broth microdilution method; type: functional, organism-based
[19] = test system: Pseudomonas aeruginosa; test: Antibacterial activity against Pseudomonas aeruginosa 2774 assessed as bacterial growth inhibition incubated for 16 hrs in presence of Muller-Hinton medium by broth microdilution method; type: functional, organism-based
[20] = test system: Klebsiella pneumoniae; test: Antibacterial activity against Klebsiella pneumoniae ATCC 10031 assessed as bacterial growth inhibition incubated for 16 hrs in presence of Muller-Hinton medium by broth microdilution method; type: functional, organism-based
[21] = test system: Klebsiella pneumoniae; test: Antibacterial activity against Klebsiella pneumoniae ATCC 700603 assessed as bacterial growth inhibition incubated for 16 hrs in presence of Muller-Hinton medium by broth microdilution method; type: functional, organism-based
[22] = test system: Acinetobacter baumannii; test: Antibacterial activity against Acinetobacter baumannii ATCC 19606 assessed as bacterial growth inhibition incubated for 16 hrs in presence of Muller-Hinton medium by broth microdilution method; type: functional, organism-based
[23] = test system: Acinetobacter baumannii; test: Antibacterial activity against Acinetobacter baumannii 2799 assessed as bacterial growth inhibition incubated for 16 hrs in presence of Muller-Hinton medium by broth microdilution method; type: functional, organism-based
[24] = test system: Enterococcus faecium; test: Antibacterial activity against Enterococcus faecium 310682 (VRE) assessed as bacterial growth inhibition incubated for 16 hrs in presence of brain heart infusion medium by broth microdilution method; type: functional, organism-based
[25] = test system: Enterococcus faecalis; test: Antibacterial activity against Enterococcus faecalis ATCC 33186 assessed as bacterial growth inhibition incubated for 16 hrs in presence of brain heart infusion medium by broth microdilution method; type: functional, organism-based
[26] = test system: Staphylococcus aureus; test: Antibacterial activity against Staphylococcus aureus ATCC 33591 assessed as bacterial growth inhibition incubated for 16 hrs in presence of Muller-Hinton medium by broth microdilution method; type: functional, organism-based
[27] = test system: Staphylococcus aureus; test: Antibacterial activity against Staphylococcus aureus ATCC 29213 assessed as bacterial growth inhibition incubated for 16 hrs in presence of Muller-Hinton medium by broth microdilution method; type: functional, organism-based
[28] = test system: Bacillus subtilis; test: Antibacterial activity against Bacillus subtilis CPCC 100029 assessed as bacterial growth inhibition incubated for 16 hrs in presence of Muller-Hinton medium by broth microdilution method; type: functional, organism-based
[29] = test system: LX-2; test: Antifibrotic activity against TGFbeta-1 induced human LX-2 cells assessed as inhibition of COL1A1 mRNA expression at 20 uM incubated for 24 hrs by qRT-PCR analysis relative to control; type: functional; parameters: scale not given: the % may be the effect or the level left
[30] = test system: LX-2; test: Antifibrotic activity against TGFbeta-1 induced human LX-2 cells assessed as inhibition of TGFB1 mRNA expression at 20 uM incubated for 24 hrs by qRT-PCR analysis relative to control; type: functional; parameters: scale not given: the % may be the effect or the level left
[31] = test system: LX-2; test: Antifibrotic activity against TGFbeta-1 induced human LX-2 cells assessed as inhibition of ACTA2 mRNA expression at 20 uM incubated for 24 hrs by qRT-PCR analysis relative to control; type: functional; parameters: scale not given: the % may be the effect or the level left

Row | inhibition [12] [%] | SMILES | Activity [1] [%] | Activity [2] [%] | Activity [3] [%] | Activity [4] [%] | Activity [5] [%] | Activity [6] [%] | Activity [7] | Activity [8] [%] | Activity [9] [%] | Activity [10] [%] | Activity [11] [%] | Activity [13] | Activity [14] | Activity [15] | Activity [16] | Activity [17] | Activity [18] | Activity [19] | Activity [20] | further results
1 | 67 | O=C(NCCCC[C@@H](CO)NC(=O)c1cccc(O)c1O)c1cccc(O)c1O | 39 | 82 | 60 | 74 | 87 | 136 | Non-toxic | 9 | 78 | 70 | 108 | Dose-dependent-effect | Dose-dependent-effect | Dose-dependent-effect | inactive | inactive | inactive | inactive | inactive | Activity [21]: inactive; Activity [22]: inactive; Activity [23]: inactive; Activity [24]: inactive; Activity [25]: inactive; Activity [26]: inactive; Activity [27]: inactive; Activity [28]: inactive
2 | 78 | CC(=O)OC[C@H](CCCCNC(=O)c1cccc(O)c1O)NC(=O)c1cccc(O)c1O | 35 | 81 | 36 | 70 | 62 | 132 | Non-toxic | 60 | 70 | 95 | 129 | Dose-dependent-effect | Dose-dependent-effect | Dose-dependent-effect | inactive | inactive | inactive | inactive | inactive | Activity [21]: inactive; Activity [22]: inactive; Activity [23]: inactive; Activity [24]: inactive; Activity [25]: inactive; Activity [26]: inactive; Activity [27]: inactive; Activity [28]: inactive
3 | 75 | CCC(=O)OC[C@H](CCCCNC(=O)c1cccc(O)c1O)NC(=O)c1cccc(O)c1O | 50 | 92 | 57 | 73 | 105 | 139 | Non-toxic | 35 | 81 | 61 | 117 | Dose-dependent-effect | Dose-dependent-effect | Dose-dependent-effect | inactive | inactive | inactive | inactive | inactive | Activity [21]: inactive; Activity [22]: inactive; Activity [23]: inactive; Activity [24]: inactive; Activity [25]: inactive; Activity [26]: inactive; Activity [27]: inactive; Activity [28]: inactive
4 |  | O=C(O[C@@H]1Cc2c(O)cc(O)cc2O[C@@H]1c1cc(O)c(O)c(O)c1)c1cc(O)c(O)c(O)c1 [EPIGALOCATECHIN GALLATE] |  |  |  |  |  |  |  |  |  |  |  |  |  |  |  |  |  |  |  | Activity [29]: 89%; Activity [30]: 88%; Activity [31]: 62%
